Measurements published in PMC3034978 (Biopharmaceutics & drug disposition, 2010).
Like-named read-outs stand apart in the source and are kept apart here. Marks after values point to notes of the source that are not given here.

What was measured:
BME-UV monolayer = assay: Mannitol flux across BME-UV monolayer from Ap-to-BL side; type: in vitro ADME, bovine; details: for Effect on flux of mannitol across BME-UV monolayer (monolayer integrity): 200 ng/ml TNF-α
P-glycoprotein [1] = assay: Western blot of P-glycoprotein immunoreactive bands in BME-UV cells; type: cell-based, bovine; details: TNF-α 200 ng/ml
[2] = test system: mammary epithelial monolayer (BME-UV); details: exposure to TNF-α for 8 hours; cited from earlier work
bABCB1 mRNA = bABCB1 mRNA expression by quantitative real-time RT-PCR in BME-UV cells; type: cell-based, bovine; details: 200 ng/ml TNF-α, 24 hours exposure, vs unexposed cells
P-glycoprotein [3] = target: P-glycoprotein (Bos taurus, UniProt A0A3Q1MB23); assay: Ap-to-BL flux of digoxin; type: in vitro ADME, bovine; details: TNF-α 200 ng/ml, 24 hours exposure; 0.05 μM [3H]-digoxin
Sequence of P-glycoprotein (Bos taurus, UniProt A0A3Q1MB23) (A0A3Q1MB23 1-1267): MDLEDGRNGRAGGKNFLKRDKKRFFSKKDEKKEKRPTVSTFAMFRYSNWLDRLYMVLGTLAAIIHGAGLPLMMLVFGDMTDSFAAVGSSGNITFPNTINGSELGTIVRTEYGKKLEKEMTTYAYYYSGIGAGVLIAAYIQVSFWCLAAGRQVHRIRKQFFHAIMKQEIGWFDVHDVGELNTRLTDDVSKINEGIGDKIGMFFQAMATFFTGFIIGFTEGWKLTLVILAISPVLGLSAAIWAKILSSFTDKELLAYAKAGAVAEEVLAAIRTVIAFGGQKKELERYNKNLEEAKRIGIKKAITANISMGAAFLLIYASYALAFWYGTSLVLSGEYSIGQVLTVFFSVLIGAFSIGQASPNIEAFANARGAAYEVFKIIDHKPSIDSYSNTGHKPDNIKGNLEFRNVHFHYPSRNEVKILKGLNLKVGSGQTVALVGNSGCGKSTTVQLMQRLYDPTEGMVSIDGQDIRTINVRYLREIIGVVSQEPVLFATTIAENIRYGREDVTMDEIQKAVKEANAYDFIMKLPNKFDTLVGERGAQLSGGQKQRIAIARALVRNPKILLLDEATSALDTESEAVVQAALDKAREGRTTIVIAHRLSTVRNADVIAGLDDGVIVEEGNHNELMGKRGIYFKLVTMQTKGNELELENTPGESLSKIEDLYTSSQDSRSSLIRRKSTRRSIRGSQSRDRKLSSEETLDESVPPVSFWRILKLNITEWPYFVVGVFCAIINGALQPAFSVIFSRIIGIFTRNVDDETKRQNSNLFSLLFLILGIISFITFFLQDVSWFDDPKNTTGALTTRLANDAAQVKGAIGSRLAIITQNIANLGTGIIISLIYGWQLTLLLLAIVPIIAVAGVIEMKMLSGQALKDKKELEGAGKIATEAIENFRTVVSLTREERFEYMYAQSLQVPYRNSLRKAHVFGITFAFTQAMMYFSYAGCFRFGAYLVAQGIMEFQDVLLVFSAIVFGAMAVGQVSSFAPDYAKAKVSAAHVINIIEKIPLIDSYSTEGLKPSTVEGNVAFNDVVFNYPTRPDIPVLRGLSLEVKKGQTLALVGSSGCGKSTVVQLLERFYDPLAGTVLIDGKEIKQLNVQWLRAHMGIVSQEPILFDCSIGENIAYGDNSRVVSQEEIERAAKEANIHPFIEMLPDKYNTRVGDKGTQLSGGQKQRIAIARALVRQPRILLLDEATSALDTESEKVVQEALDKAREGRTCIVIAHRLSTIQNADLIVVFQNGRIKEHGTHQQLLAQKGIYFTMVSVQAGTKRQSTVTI

TNF-α
Effect on flux of mannitol across BME-UV monolayer (monolayer integrity) (BME-UV monolayer; 24 and 72 hours exposure): increased significantly | Effect on flux of mannitol across BME-UV monolayer (monolayer integrity) (BME-UV monolayer; 120 hours exposure): indistinguishable from untreated | Change in P-glycoprotein immunoreactive level (P-glycoprotein [1]; 24 hours exposure): significant increase | Change in P-glycoprotein immunoreactive level (P-glycoprotein [1]; 72 hours exposure): maximum observed effect | Change in P-glycoprotein immunoreactive level (P-glycoprotein [1]; 120 hours exposure, lower than at 72 hours): increased significantly | Decrease in Rte value [2]: 30% | Change in bABCB1 mRNA expression (bABCB1 mRNA): significant increase | Change in Ap-to-BL flux of digoxin (P-glycoprotein [3]): significantly decreased

C[C@H]1O[C@@H](O[C@H]2[C@@H](O)C[C@H](O[C@H]3[C@@H](O)C[C@H](O[C@H]4CC[C@@]5(C)[C@H](CC[C@@H]6[C@@H]5C[C@@H](O)[C@]5(C)[C@@H](C7=CC(=O)OC7)CC[C@]65O)C4)O[C@@H]3C)O[C@@H]2C)C[C@H](O)[C@@H]1O [digoxin]
Intracellular content of digoxin (BME-UV cells; BME-UV cells exposed to TNF-α for 24 hours): 4.6 ± 1.1 × 10^−4 nmol | Intracellular content of digoxin (BME-UV cells; BME-UV cells exposed to TNF-α for 72 hrs): 3.0 ± 0.2 × 10^−4 nmol | Intracellular content of digoxin (BME-UV cells; unexposed BME-UV cells): 6.3 ± 2.6 × 10^−4 nmol

OC[C@@H](O)[C@@H](O)[C@H](O)[C@H](O)CO [mannitol]
Mannitol flux, Ap-to-BL (BME-UV monolayer; BME-UV exposed to TNF-α 200 ng/ml for 24 hr (TNF-24H)): 15.5 × 10^−3 ^b nmol/cm^2/hr | Mannitol flux, Ap-to-BL (BME-UV monolayer; BME-UV exposed to TNF-α 200 ng/ml for 72 hr (TNF-72H)): 14.1 × 10^−3 ^b nmol/cm^2/hr | Mannitol flux, Ap-to-BL (BME-UV monolayer; BME-UV exposed to TNF-α 200 ng/ml for 120 hr (TNF-120H)): 9.6 × 10^−3 ^a nmol/cm^2/hr | Flux value of mannitol (BME-UV monolayer; TNF-α exposed monolayers for 24 hours): 15.5 ± 0.8 × 10^−6 μmol/cm^2 per hour | Mannitol flux, Ap-to-BL (BME-UV monolayer; Untreated BME-UV monolayer, 2 μM [14C]-mannitol): 6.5 × 10^−3 ^a nmol/cm^2/hr | Flux value of mannitol (BME-UV monolayer; unexposed monolayers): 6.5 ± 0.7 × 10^−6 μmol/cm^2 per hour
